SMILES strings stand for the structures.

DLK, sequence (Q12852 1-520): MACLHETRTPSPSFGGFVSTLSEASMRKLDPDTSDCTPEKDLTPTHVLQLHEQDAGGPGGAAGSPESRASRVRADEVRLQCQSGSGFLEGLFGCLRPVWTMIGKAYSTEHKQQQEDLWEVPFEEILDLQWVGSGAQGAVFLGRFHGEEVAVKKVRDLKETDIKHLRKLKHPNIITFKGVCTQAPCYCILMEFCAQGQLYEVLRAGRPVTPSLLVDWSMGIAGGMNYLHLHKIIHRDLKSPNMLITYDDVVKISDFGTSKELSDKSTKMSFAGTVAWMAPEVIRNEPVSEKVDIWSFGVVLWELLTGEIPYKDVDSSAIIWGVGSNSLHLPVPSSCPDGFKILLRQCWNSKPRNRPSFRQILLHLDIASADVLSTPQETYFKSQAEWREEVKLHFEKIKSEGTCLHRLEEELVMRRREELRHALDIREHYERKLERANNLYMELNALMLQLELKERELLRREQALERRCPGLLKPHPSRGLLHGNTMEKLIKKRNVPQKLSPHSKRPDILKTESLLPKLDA

This assay concerns the target DLK (Homo sapiens (Human), UniProt Q12852). Briefly: DLK TR-FRET Inhibition Assay. In kind it is biochemical. The following applies: N-terminally GST-tagged DLK (catalytic domain amino acid 1-520), MKK4 K131M substrate, 30 μM ATP; read-out: DLK HTRF Ki. How it is done:
DLK kinase reactions (20 μL) containing 5 nM N-terminally GST-tagged DLK (catalytic domain amino acid 1-520) (Carna Bioscience), 40 nM N-terminally HIS tagged MKK4 K131M substrate, and 30 μM ATP in kinase reaction buffer (50 mM HEPES, pH 7.5, 0.01% Triton X-100, 0.01% Bovine γ-Globulins, 2 mM DTT, 10 mM MgCl2 and 1 mM EGTA), and testing compound 1:3 serial diluted starting at 20 uM were incubated at ambient temperature for 60 minutes in 384 well OptiPlate (Perkin Elmer). To quench kinase reactions and detect phosphorylated MKK4, 15 μL of TR-FRET antibody mixture containing 2 nM anti-phosphorylated MKK4 labeled with Europium cryptate (Cisbio) and 23 nM anti-HIS labeled with D2 (Cisbio) in detection buffer (25 mM Tris pH 7.5, 100 mM NaCl, 100 mM EDTA, 0.01% Tween-20, and 200 mM KF) was added to the reaction mixture. The detection mixture was incubated for 3 hours at ambient temperature and the TR-FRET was detected with an EnVision multilabel plate reader (Perkin-Elmer) using the LANCE/DELFIA Dual Enh label from Perkin-Elmer (excitation filter: UV2 (TRF) 320 and emission filters: APC 665 and Europium 615).
Turning to `C[C@H]1CCCN1c1nc(-c2cnc(N)nc2)nc2c1nc1n2CCOC1(C)C` [Example 53, 5-[8,8-Dimethyl-1-((S)-2-methyl-pyrrolidin-1-yl)-5,6-dihydro-8H-7-oxa-2,4,4b,9-tetraaza-fluoren-3-yl]-pyrimidin-2-ylamine], the Ki turned out to be 479 nM.

Turning to `CC1CCC(C)N1c1nc(-c2cnc(N)nc2)nc2c1nc1n2CCOC1(C)C` (stereo not drawn) [Example 54, 5-[1-(2,5-Dimethyl-pyrrolidin-1-yl)-8,8-dimethyl-5,6-dihydro-8H-7-oxa-2,4,4b,9-tetraaza-fluoren-3-yl]-pyrimidin-2-ylamine], the inhibition constant Ki stood at 284 nM.

With `C[C@@H]1CC[C@H](C)N1c1nc(-c2cnc(N)nc2)nc2c1nc1n2CCOC1(C)C` [Example 55, 5-(4-((2R,5S)-2,5-dimethylpyrrolidin-1-yl)-6,6-dimethyl-8,9-dihydro-6H-[1,4]oxazino[4,3-e]purin-2-yl)pyrimidin-2-amine], the Ki worked out at 371 nM.

Turning to `CC1(C)OCCn2c1nc1c(N3C4CCC3CC4)nc(-c3cnc(N)nc3)nc12` [Example 56, 5-(4-(7-azabicyclo[2.2.1]heptan-7-yl)-6,6-dimethyl-8,9-dihydro-6H-[1,4]oxazino[4,3-e]purin-2-yl)pyrimidin-2-amine], the inhibition constant Ki was determined as 339 nM.

`COc1cc(-c2nc(N3CC4CC3C4)c3nc4n(c3n2)CCOC4(C)C)cnc1N` [Example 57]: the Ki worked out at 200 nM.

Take `CN(c1nc(-c2cnc(N)nc2)nc2c1nc1n2CCOC1(C)C)C1CCC1` [Example 58, 2-(2-aminopyrimidin-5-yl)-N-cyclobutyl-N,6,6-trimethyl-8,9-dihydro-6H-[1,4]oxazino[4,3-e]purin-4-amine]: the inhibition constant Ki turned out to be 87.7 nM.

For `CC1(C)OCCn2c1nc1c(NC3CC3)nc(-c3cnc(N)nc3)nc12` [Example 59, 2-(2-aminopyrimidin-5-yl)-N-cyclopropyl-6,6-dimethyl-8,9-dihydro-6H-[1,4]oxazino[4,3-e]purin-4-amine], the Ki turned out to be 192 nM.

As for `CN(c1nc(-c2cnc(N)nc2)nc2c1nc1n2CCOC1(C)C)C1CC1` [Example 60, 2-(2-aminopyrimidin-5-yl)-N-cyclopropyl-N,6,6-trimethyl-8,9-dihydro-6H-[1,4]oxazino[4,3-e]purin-4-amine], the Ki was found to be 207 nM.

On to `CCN(c1nc(-c2cnc(N)nc2)nc2c1nc1n2CCOC1(C)C)C1CC1` [Example 61, 2-(2-aminopyrimidin-5-yl)-N-cyclopropyl-N-ethyl-6,6-dimethyl-8,9-dihydro-6H-[1,4]oxazino[4,3-e]purin-4-amine], for which the Ki was found to be 250 nM.

For `CCN(c1nc(-c2cnc(N)nc2)nc2c1nc1n2CCOC1(C)C)C1CCC1` [Example 62, 2-(2-aminopyrimidin-5-yl)-N-cyclobutyl-N-ethyl-6,6-dimethyl-8,9-dihydro-6H-[1,4]oxazino[4,3-e]purin-4-amine], the Ki was 86.7 nM.

For `CC(C)N(c1nc(-c2cnc(N)nc2)nc2c1nc1n2CCOC1(C)C)C1CC1` [Example 63, 2-(2-aminopyrimidin-5-yl)-N-cyclopropyl-N-isopropyl-6,6-dimethyl-8,9-dihydro-6H-[1,4]oxazino[4,3-e]purin-4-amine], the Ki worked out at 558 nM.

On to `CC(C)N(c1nc(-c2cnc(N)nc2)nc2c1nc1n2CCOC1(C)C)C1CCC1` [Example 64, 2-(2-aminopyrimidin-5-yl)-N-cyclobutyl-N-isopropyl-6,6-dimethyl-8,9-dihydro-6H-[1,4]oxazino[4,3-e]purin-4-amine], for which the Ki came out at 267 nM.

In the case of `COc1cc(-c2nc(N3CC(F)(F)C3)c3nc4n(c3n2)CCOC4(C)C)cnc1N` [Example 65, 5-(4-(3,3-difluoroazetidin-1-yl)-6,6-dimethyl-8,9-dihydro-6H-[1,4]oxazino[4,3-e]purin-2-yl)-3-methoxypyridin-2-amine], the Ki was 860 nM.

Regarding `Cc1c[nH]c2ncc(-c3nc(N4CC(F)(F)C4)c4nc5n(c4n3)CCOC5(C)C)cc12` [Example 66], the Ki worked out at 11.9 nM.

Regarding `CC(C)c1c[nH]c2ncc(-c3nc(N4CC(F)(F)C4)c4nc5n(c4n3)CCOC5(C)C)cc12` [Example 67], the Ki came out at 32.7 nM.

Source of the values: patent publication US10131675B2 (Genentech, Inc., priority 2015, dated 2018).
